According to patent publication US9938274B1, “Naphthyridine compounds, medical combinations and use thereof” (Nanjing Natinefy Pharmatech Co., Ltd., priority 2016, dated 2018):

Key:
Axl kinase = Axl kinase (Homo sapiens (Human), UniProt P30530); experiment: HTRF KinEASE TK kinase inhibition assay, Axl; format: biochemical
RET = RET (Homo sapiens (Human), UniProt P07949); experiment: HTRF KinEASE TK kinase inhibition assay, RET; format: biochemical
Experimental: A study on inhibition of protein kinases activity at in vitro biochemical level
Material and method: kinases such as c-Met, VEGFR-2, Axl and RET, obtained from Invitrogen; HTRF KinEASE; TK kit (Cisbio Company); 384-well plate (Greiner Company); ATP (Sigma Company), MgCl2 (Sigma Company); PHERAstar FS multifunctional plate reader (BMG Company); conventional centrifuge (StaiteXiangyi Company); incubator (Binder Company).
Preparation of working solution of the compounds: Before test, aliquots of the compounds are removed from the refrigerator, and diluted with pure DMSO to 50× of the level needed; and then the compounds are diluted with deionized water to 4× of the level needed;
Preparation of 1.33× enzymatic buffer: 5× enzymatic buffer (from HTRF kit) is diluted to 1.33× with deionized water, and appropriate components of the final level 1.33× are added: 1.33 mmol/L dithiothreitol (DTT) and 1.33 mmol/L MgCl2;
Preparation of kinase working solution: Met is diluted to 2× final level required, 0.2 ng/μL, with 1.33× enzymatic buffer; […]
Reading HTRF signal: PHERAstar FS is used to read the testing signal, and its setting is as following:
For the original data read from each well, ratio=665 nm/620 nm; […]

[1] = In vivo pharmacokinetic study in rats
Experimental: An In Vivo Pharmacokinetic Study in Rats
For intravenous injection, rats are given a dose of 1 mg/kg. For oral administration, rats are given a dose of 5 mg/kg. […] The whole blood is centrifuged at 8000 rpm for 5 min to collect plasma, which is then transferred to 96-well pallet, and stored at −20° C. till LC-MS/MS testing.
Pharmacokinetic parameters among rats after medication are estimated using the non-compartment model of software WinNonlin.
The peak concentration, Cmax: the actual measurements are used;

U87MG tumor = experiment: Tumor xenograft model, U87MG, tumor growth inhibition; format: in vivo, nude mice (BALB/cA nu/nu); conditions: for Tumor growth inhibition rate, % TGI: day 22

RET, sequence (P07949 29-1114): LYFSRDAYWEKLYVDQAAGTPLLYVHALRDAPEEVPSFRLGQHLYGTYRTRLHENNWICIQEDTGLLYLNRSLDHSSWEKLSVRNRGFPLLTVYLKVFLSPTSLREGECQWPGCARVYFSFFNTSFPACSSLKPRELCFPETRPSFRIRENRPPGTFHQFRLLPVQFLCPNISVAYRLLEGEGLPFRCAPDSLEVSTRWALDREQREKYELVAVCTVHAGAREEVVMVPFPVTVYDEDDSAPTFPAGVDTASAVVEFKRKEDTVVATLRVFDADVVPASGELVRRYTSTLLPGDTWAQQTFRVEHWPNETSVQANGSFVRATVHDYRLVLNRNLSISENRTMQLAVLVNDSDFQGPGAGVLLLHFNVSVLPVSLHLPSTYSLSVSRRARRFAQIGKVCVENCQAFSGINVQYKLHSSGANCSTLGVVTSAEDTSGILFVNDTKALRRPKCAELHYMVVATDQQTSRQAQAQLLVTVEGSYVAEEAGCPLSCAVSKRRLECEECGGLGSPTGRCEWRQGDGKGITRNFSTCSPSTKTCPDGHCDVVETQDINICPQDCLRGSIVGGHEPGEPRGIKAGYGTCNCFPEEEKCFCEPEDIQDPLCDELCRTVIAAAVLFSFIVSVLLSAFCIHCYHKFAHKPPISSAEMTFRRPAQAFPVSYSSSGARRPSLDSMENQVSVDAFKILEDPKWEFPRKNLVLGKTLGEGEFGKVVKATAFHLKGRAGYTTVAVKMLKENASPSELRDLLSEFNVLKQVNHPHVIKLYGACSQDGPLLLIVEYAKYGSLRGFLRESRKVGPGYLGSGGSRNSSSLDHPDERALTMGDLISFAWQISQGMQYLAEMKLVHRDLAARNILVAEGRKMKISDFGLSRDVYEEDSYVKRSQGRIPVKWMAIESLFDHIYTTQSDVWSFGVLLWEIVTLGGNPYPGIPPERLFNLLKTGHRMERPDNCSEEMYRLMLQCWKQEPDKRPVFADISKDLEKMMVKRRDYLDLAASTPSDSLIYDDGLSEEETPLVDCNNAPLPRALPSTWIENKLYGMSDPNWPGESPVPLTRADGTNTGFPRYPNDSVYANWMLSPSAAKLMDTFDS
Axl kinase, sequence (P30530 26-894): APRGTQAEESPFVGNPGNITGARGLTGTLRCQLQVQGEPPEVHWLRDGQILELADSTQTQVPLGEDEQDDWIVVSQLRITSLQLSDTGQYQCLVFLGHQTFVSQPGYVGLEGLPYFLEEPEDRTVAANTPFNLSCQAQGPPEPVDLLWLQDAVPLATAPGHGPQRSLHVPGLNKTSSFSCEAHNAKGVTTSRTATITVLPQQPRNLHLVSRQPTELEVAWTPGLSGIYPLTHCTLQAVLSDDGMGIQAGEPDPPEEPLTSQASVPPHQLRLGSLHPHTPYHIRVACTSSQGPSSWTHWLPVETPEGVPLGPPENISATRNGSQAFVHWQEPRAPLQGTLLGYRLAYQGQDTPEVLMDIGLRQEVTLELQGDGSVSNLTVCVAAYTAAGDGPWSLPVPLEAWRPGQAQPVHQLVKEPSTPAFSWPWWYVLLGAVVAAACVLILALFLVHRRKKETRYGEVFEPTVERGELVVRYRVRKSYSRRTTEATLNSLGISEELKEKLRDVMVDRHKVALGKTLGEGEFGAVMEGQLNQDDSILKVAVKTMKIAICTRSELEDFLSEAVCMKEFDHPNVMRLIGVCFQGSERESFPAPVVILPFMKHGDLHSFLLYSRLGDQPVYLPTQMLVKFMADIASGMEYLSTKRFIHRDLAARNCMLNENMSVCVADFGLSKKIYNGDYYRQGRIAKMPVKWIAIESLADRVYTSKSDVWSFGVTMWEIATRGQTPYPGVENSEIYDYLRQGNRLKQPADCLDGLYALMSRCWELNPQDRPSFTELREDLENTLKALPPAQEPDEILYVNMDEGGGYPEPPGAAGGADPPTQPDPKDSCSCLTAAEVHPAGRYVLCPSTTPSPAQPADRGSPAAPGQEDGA

CC(C)(O)COc1ccc2c(Oc3ccc(Nc4nccc5[nH]cc(-c6ccc(F)cc6)c(=O)c45)cc3F)ccnc2c1 [Example 4, 5-((3-fluoro-4-((7-(2-hydroxy-2-methylpropoxy)quinolin-4-yl)oxy)phenyl)amino)-3-(4-fluorophenyl)-1,6-naphthyridin-4(1H)-one]
IC50 (Axl kinase): 15.7 nM
IC50 (RET): 62 nM
CL ([1]; 5 mg/kg i.g.): 2 mL/min/kg
Vz ([1]; 5 mg/kg i.g.): 1.46 L/kg
AUC(0-t) ([1]; rat, plasma, iv, 1 mg/kg i.v.): 11500 ng·h/mL
Cmax ([1]; rat, plasma, iv, 1 mg/kg i.v.): 10800 ng/mL
clearance ([1]; rat, plasma, iv, 1 mg/kg i.v.): 0.5 mL/min/kg
half-life ([1]; rat, plasma, iv, 1 mg/kg i.v.): 9.97 h
Vd ([1]; rat, plasma, iv, 1 mg/kg i.v., read-out: Vz): 0.47 L/kg
bioavailability ([1]; rat, plasma, oral, 5 mg/kg i.g. vs 1 mg/kg i.v., read-out: F (absolute bioavailability)): 71.8%
AUC(0-t) ([1]; rat, plasma, po, 5 mg/kg i.g.): 41300 ng·h/mL
Cmax ([1]; rat, plasma, po, 5 mg/kg i.g.): 4310 ng/mL
half-life ([1]; rat, plasma, po, 5 mg/kg i.g.): 8.37 h
Tumor growth inhibition rate, % TGI (U87MG tumor; 3 mg/kg p.o. QD): 87.0%
Tumor growth inhibition rate, % TGI (U87MG tumor; 10 mg/kg p.o. QD): 105.9%
Regression of tumor (tumor regression rate) (U87MG tumor; 6 animals per group): is 100% (6/6)
